Results as given in US7786046B2, “Benzoyl-substituted serineamides” (BASF Aktiengesellschaft, priority 2005, dated 2010).

Compound | melting point [°C]
CNC(=O)C(NC(=O)c1ccc(F)cc1C(F)(F)F)C(O)CO (stereo not shown) [Compound 3.8, 2-(4-Fluoro-2-trifluoromethylbenzoylamino)-3,4-dihydroxy-N-methylbutyramide] | 163
CNC(=O)C(NC(=O)c1ccc(F)cc1C(F)(F)F)C(O)C(F)(F)F (racemic) [Compound 3.1, 4-Fluoro-N-(3,3,3-trifluoro-2-hydroxy-1-methylcarbamoylpropyl)-2-trifluoromethylbenzamide] | 212
C=CC(O)C(NC(=O)c1ccc(F)cc1C(F)(F)F)C(=O)NC (racemic) [Compound 3.3, N-(2-Hydroxy-1-methylcarbamoylbut-3-enyl)-4-fluoro-2-trifluoromethylbenzamide] | 163
CNC(=O)C(NC(=O)c1ccc(F)cc1C(F)(F)F)C(O)/C(Cl)=C/c1ccccc1 (racemic) [Compound 3.7, N-(3-Chloro-2-hydroxy-1-methylcarbamoyl-4-phenylbut-3-enyl)-4-fluoro-2-trifluoromethylbenzamide] | 140
